Results filed as inconclusive are left out.
The compounds below were run on C2C12 myotubes + simvastatin, ATP luminescence, 48 h (assay: rescue of simvastatin-induced ATP loss – cell-based, C2C12 myotubes, ATP luminescence, cherry pick, dose response (AID 624405);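 note: myotubes are challenged with simvastatin at 10 µM to lower ATP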).

Q: With `C[C@H]1CN([C@@H](C)CO)C(=O)c2cc(NC(=O)Cc3cn(C)c4ccccc34)ccc2O[C@H]1CN(C)Cc1ccc(C(=O)Nc2ccccc2N)cc1` as the compound, how does the AC40 read?
A: 3.17 µM

Q: With `CCCCCn1c(=O)c(C(=O)c2ccccc2)nc2ccccc21` as the compound, how does the AC40 read?
A: 15.6 µM

Q: For `COc1ccc(N(Cc2cc3ccccc3[nH]c2=O)S(=O)(=O)c2ccccc2)cc1`, which AC40 is on record?
A: 5.81 µM

Q: Which AC40 does the source give for `C[C@H]1CN([C@@H](C)CO)C(=O)c2cc(NC(=O)Nc3cccc4ccccc34)ccc2O[C@@H]1CN(C)Cc1ccc(C(=O)Nc2ccccc2N)cc1` here?
A: 17.7 µM

Q: Which AC40 does the source give for `c1coc(-c2nc3ccccc3s2)c1` here?
A: 18 µM

Q: How did the AC40 turn out when `Cc1ccc(N2CC(C(=O)Nc3ccc(N(C)C)cc3)CC2=O)cc1C` (centres undefined) was run?
A: 12 µM

Q: `CC(C)(C)c1ccc(OCC(=O)N/N=C/c2cc(Br)ccc2OC(=O)c2ccco2)cc1` was tested. Which AC40 did it give?
A: 2.32 µM

Q: Which AC40 does the source give for `O=C(/C=C/Sc1ncn[nH]1)c1ccc(Cl)cc1` here?
A: 6.34 µM

Q: Which AC40 does the source give for `CCOC(=O)N1CCN(C(=O)CN(Cc2ccccc2)S(=O)(=O)c2ccc(OC)c(Cl)c2)CC1` here?
A: 15.7 µM

Q: With `C[C@H]1CN([C@@H](C)CO)C(=O)Cc2cc(NS(=O)(=O)c3ccc(Cl)cc3)ccc2O[C@@H]1CN(C)CC1CCCCC1` as the compound, how does the AC40 read?
A: 15.1 µM

Q: With `COc1ccc(CC2NCC(O)C2OC(C)=O)cc1` (centres undefined) as the compound, how does the AC40 read?
A: 0.275 µM

Q: `C[C@@H]1CN([C@@H](C)CO)C(=O)c2cc(NS(=O)(=O)c3ccc(Cl)cc3)ccc2O[C@H]1CN(C)C(=O)Nc1cccc2ccccc12` was tested. Which AC40 did it give?
A: 9.49 µM

Q: Which AC40 does the source give for `COc1cc2c(cc1OC)C(=O)CCS2` here?
A: 1.88 µM

Q: How did the AC40 turn out when `NC1=NC(=Nc2ccccc2)c2ccccc21` was run?
A: 16.3 µM

Q: `C[C@@H]1CN([C@H](C)CO)C(=O)Cc2cc(NC(=O)CCCCCC(=O)Nc3ccccc3N)ccc2O[C@@H]1CN(C)CC1CCCCC1` was tested. Which AC40 did it give?
A: 15.4 µM

Q: For `C[C@@H]1CN([C@H](C)CO)C(=O)Cc2cc(NC(=O)CCCCCC(=O)Nc3ccccc3N)ccc2O[C@H]1CN(C)Cc1ccc(-c2ccccc2)cc1`, which AC40 is on record?
A: 6.3 µM

Q: How did the AC40 turn out when `C[C@@H]1CN([C@H](C)CO)C(=O)c2cccc(NC(=O)Nc3ccccc3)c2O[C@H]1CN(C)Cc1ccc(C(=O)Nc2ccccc2N)cc1` was run?
A: 11 µM

Q: How did the AC40 turn out when `CC1(Cc2cccc(F)c2)C(=O)Nc2ccc(S(=O)(=O)NC3CCCCC3)cc21` (centres undefined) was run?
A: 1.66 µM

Q: Which AC40 does the source give for `Cc1noc(C)c1S(=O)(=O)Nc1ccc2c(c1)CC(=O)N([C@H](C)CO)C[C@@H](C)[C@@H](CN(C)Cc1ccc(-c3ccccc3)cc1)O2` here?
A: 3.64 µM

Q: For `CC(C)Nc1ncnc2c1cnn2Cc1ccc(Cl)cc1`, which AC40 is on record?
A: 0.544 µM

Q: Which AC40 does the source give for `CCN(CC)c1ncnc2c1cnn2Cc1ccc(C)cc1` here?
A: 12 µM

Q: For `CCOCCCN1CN(S(=O)(=O)c2ccc(Cl)cc2)c2nc3ccccc3nc21`, which AC40 is on record?
A: 1.87 µM

Q: How did the AC40 turn out when `N#C[C@@H]1[C@@H](c2ccc(-c3ccc(F)cc3)cc2)[C@H](CO)N1C(=O)Cc1ccccc1` was run?
A: 9.36 µM

Q: Which AC40 does the source give for `COCc1nc2ccccc2n1CCCOc1ccccc1` here?
A: 13.4 µM

Q: With `COC(=O)[C@@]12CCCCN1[C@H](c1ccc(-c3cccc(Cl)c3)c(OC)c1)[C@@H]1C(=O)N(C)C(=O)[C@@H]12` as the compound, how does the AC40 read?
A: 2.72 µM

Q: Which AC40 does the source give for `CCC(=O)/C=C1/Sc2ccccc2N1CC` here?
A: 7.21 µM

Q: How did the AC40 turn out when `CCSc1nnc(NC(=O)c2c(-c3ccccc3Cl)noc2C)s1` was run?
A: 13.9 µM

Q: How did the AC40 turn out when `O=C(Nc1ccc2nc3n(c(=O)c2c1)CCCCC3)c1c(F)ccc([N+](=O)[O-])c1F` was run?
A: 4.3 µM

Q: Which AC40 does the source give for `C[C@@H]1CN([C@H](C)CO)C(=O)Cc2cc(NS(=O)(=O)c3ccc(Cl)cc3)ccc2O[C@H]1CN(C)Cc1ccccc1` here?
A: 4.44 µM

Q: `O=S(=O)(Nc1nc2c(s1)CCCC2)c1ccc2ccccc2c1` was tested. Which AC40 did it give?
A: 5.94 µM

Q: `C[C@H](CO)N1C[C@H](C)[C@H](CN(C)C(=O)Nc2ccc(F)cc2)Oc2ncc(C#Cc3ccc(C(F)(F)F)cc3)cc2C1=O` was tested. Which AC40 did it give?
A: 13.5 µM

Q: Which AC40 does the source give for `CN(c1ccc(Cl)cc1)c1cc(=O)n(C)c2ccccc12` here?
A: < 0.16 µM

Q: How did the AC40 turn out when `O=C1N2CCCc3cccc(c32)C12Nc1ccccc1S2` (centres undefined) was run?
A: 14.5 µM

Q: With `C[C@H]1CN([C@@H](C)CO)C(=O)Cc2cc(NC(=O)CCCCCC(=O)Nc3ccccc3N)ccc2O[C@H]1CN(C)Cc1ccc(Oc2ccccc2)cc1` as the compound, how does the AC40 read?
A: 3.86 µM

Q: How did the AC40 turn out when `CCC(c1nnnn1C1CCCC1)N1CCN(c2ccccc2F)CC1` (centres undefined) was run?
A: 4.11 µM

Q: Which AC40 does the source give for `CCCNC(=O)Cc1c(O)c2ccccc2[nH]c1=O` here?
A: 18.6 µM

Q: With `COc1ccc(Nc2nc3ccc(C)cn3c(=O)c2/C=N/O)cc1` as the compound, how does the AC40 read?
A: 15.2 µM

Q: For `Fc1ccccc1OCCCCn1cncn1`, which AC40 is on record?
A: 18.6 µM

Q: For `Cc1noc2ncnc(Sc3ccc(Cl)cc3)c12`, which AC40 is on record?
A: 3.11 µM

Q: `Cc1cc(C(=O)COC(=O)C2=NNC(=O)CC2)c(C)n1-c1ccccc1` was tested. Which AC40 did it give?
A: 11.7 µM

Q: `Cc1nn2c3ccccc3n(Cc3ccccc3)c2nc1=O` was tested. Which AC40 did it give?
A: 19 µM

Q: With `Cc1ccc(NS(=O)(=O)c2ccc(-n3cccn3)cc2)cc1C` as the compound, how does the AC40 read?
A: 16.1 µM

Q: For `Cc1ccc(S(=O)(=O)Nc2ccc3c(c2)CC(=O)N([C@@H](C)CO)C[C@@H](C)[C@H](CN(C)Cc2ccc(-c4ccccc4)cc2)O3)cc1`, which AC40 is on record?
A: 1.17 µM

Q: Which AC40 does the source give for `CCS(=O)(=O)c1ncc(Cl)c(C(=O)Nc2ccc(C)cc2)n1` here?
A: 2.8 µM

Q: For `C[C@@H]1CN([C@H](C)CO)C(=O)Cc2cc(NS(C)(=O)=O)ccc2O[C@@H]1CN(C)Cc1ccc(-c2ccccc2)cc1`, which AC40 is on record?
A: 18.4 µM

Q: With `C[C@@H]1C[C@@H]([C@H](O)CC2CC(=O)NC(=O)C2)C(=O)[C@@H](C)C1` as the compound, how does the AC40 read?
A: < 0.16 µM

Q: `C[C@H](CO)N1C[C@H](C)[C@H](CN(C)CC2CCCCC2)Oc2ccc(NC(=O)CCCCCC(=O)Nc3ccccc3N)cc2CC1=O` was tested. Which AC40 did it give?
A: 10.1 µM

Q: `COc1ccc(S(=O)(=O)N(C)C[C@@H]2Oc3ccc(NS(=O)(=O)c4ccc(Cl)cc4)cc3CC(=O)N([C@@H](C)CO)C[C@H]2C)cc1` was tested. Which AC40 did it give?
A: 11.8 µM

Q: `CC(C)OC(=O)N(C)C[C@@H]1OCc2ccccc2-c2c(n(C)c3ccccc23)C(=O)N([C@H](C)CO)C[C@H]1C` was tested. Which AC40 did it give?
A: 18.1 µM

Q: How did the AC40 turn out when `CC(C)CC#Cc1cnc2c(c1)C(=O)N([C@H](C)CO)C[C@H](C)[C@@H](CN(C)C(=O)Cc1ccccc1)O2` was run?
A: 9.7 µM

Q: With `C[C@H]1CN([C@@H](C)CO)C(=O)Cc2cc(NC(=O)CCCCCC(=O)Nc3ccccc3N)ccc2O[C@H]1CN(C)CC1CCCCC1` as the compound, how does the AC40 read?
A: 2.67 µM

Q: How did the AC40 turn out when `COc1ccc(S(=O)(=O)Nc2ccc3c(c2)CC(=O)N([C@H](C)CO)C[C@@H](C)[C@H](CN(C)CC2CCCCC2)O3)cc1` was run?
A: 2.63 µM

Q: Which AC40 does the source give for `C[C@H](CO)N1C[C@H](C)[C@@H](CN(C)Cc2ccc(Cl)c(Cl)c2)Oc2ccc(NS(C)(=O)=O)cc2CC1=O` here?
A: 9.83 µM

Q: How did the AC40 turn out when `O=C(C[C@H]1CC[C@@H]2[C@H](COC[C@@H](O)CN2Cc2ccc(Oc3ccccc3)cc2)O1)N1CCCCC1` was run?
A: 3.19 µM

Q: For `COc1ccccc1-c1noc(-c2cccs2)n1`, which AC40 is on record?
A: 0.575 µM

Q: For `COc1ccccc1NS(=O)(=O)c1cccc(NC(=O)c2nc3nc(C)cc(C)n3n2)c1`, which AC40 is on record?
A: 8.63 µM

Q: Which AC40 does the source give for `C[C@@H]1CN([C@@H](C)CO)C(=O)c2cccc(NC(=O)Nc3ccc4c(c3)OCO4)c2O[C@H]1CN(C)Cc1ccc(C(=O)Nc2ccccc2N)cc1` here?
A: 9.42 µM

Q: How did the AC40 turn out when `COc1ccc(CN2[C@H](CO)[C@H]3c4ccccc4NC[C@H]32)cc1` was run?
A: 17.8 µM

Q: With `C[C@@H]1CN([C@H](C)CO)C(=O)c2cccc(NC(=O)c3nc4ccccc4s3)c2O[C@@H]1CN(C)Cc1ccc(C(=O)Nc2ccccc2N)cc1` as the compound, how does the AC40 read?
A: 0.462 µM

Q: Which AC40 does the source give for `Oc1ccc(Cl)cc1C1=NNC(c2cccs2)C1` (centres undefined) here?
A: 11.4 µM

Q: How did the AC40 turn out when `CS(=O)(=O)N1CCN(C(=O)c2cc(-c3ccncc3)nc3ccc(Cl)cc23)CC1` was run?
A: 11.4 µM

Q: How did the AC40 turn out when `COc1cc(NC(=O)CN(C)S(=O)(=O)c2ccc3c(c2)CC(C)N3C(C)=O)cc(OC)c1OC` (centres undefined) was run?
A: 15.9 µM

Q: Which AC40 does the source give for `O=C(C#Cc1ccccc1)Nc1cccc(F)c1` here?
A: 3.42 µM

Q: For `Cc1ccc(C2(c3ccc(C)cc3)NC(=O)N(Cc3c(C)noc3C)C2=O)cc1`, which AC40 is on record?
A: 5.45 µM

Q: For `CN1C(=O)c2ccc(N(C)C)cc2C1=O`, which AC40 is on record?
A: 9.68 µM

Q: `O=C(Nc1cccc(O)c1)c1cc(-c2cccs2)on1` was tested. Which AC40 did it give?
A: 5.99 µM

Q: Which AC40 does the source give for `Cc1csc(NC(=O)CSc2nc3[nH]c(=O)cc(O)c3s2)n1` here?
A: 4.2 µM

Q: `C[C@H](CO)N1C[C@H](C)[C@@H](CN(C)Cc2ccc(Cl)c(Cl)c2)Oc2ccc(NC(=O)C3CC3)cc2CC1=O` was tested. Which AC40 did it give?
A: 1.23 µM

Q: Which AC40 does the source give for `C[C@H]1CN([C@@H](C)CO)C(=O)c2cc(NC(=O)Nc3cccc4ccccc34)ccc2O[C@H]1CN(C)Cc1ccc(C(=O)Nc2ccccc2N)cc1` here?
A: 5.45 µM

Q: Which AC40 does the source give for `Cc1ccc(S(=O)(=O)N(C)C[C@H]2Oc3c(NC(=O)Nc4ccccc4)cccc3C(=O)N([C@@H](C)CO)C[C@H]2C)cc1` here?
A: 18 µM

Q: With `COc1cccc(OC)c1C(=O)N1CCN(S(=O)(=O)c2ccc(C)cc2)CC1` as the compound, how does the AC40 read?
A: 0.233 µM

Q: How did the AC40 turn out when `Oc1ccc(-c2csc(Nc3ccc4c(c3)OCO4)n2)c(O)c1` was run?
A: 10.5 µM

Q: `O=C(CNc1cccc(F)c1)N1CCc2ccccc2C1` was tested. Which AC40 did it give?
A: 3.26 µM

Q: `O=C(CN1CCC(c2nc3ccccc3s2)CC1)NCc1ccccc1` was tested. Which AC40 did it give?
A: 19.3 µM
